Reference: patent publication EP4786487A1, “PEPTIDE” (Peptidream Inc, priority 2023, dated 2025)
Positions of bridges follow the written chain, without caps; N, C: chain ends. Non-standard residues stand in square brackets, D forms with d. Residues, ends and D or L forms follow the SMILES beside them. Phe(3-OCH2COOH) = N[C@@H](Cc1cccc(OCC(=O)O)c1)C(=O)O; Phe(4-COOH) = N[C@@H](Cc1ccc(C(=O)O)cc1)C(=O)O; Bip = N[C@@H](Cc1ccc(-c2ccccc2)cc1)C(=O)O; Gly(N(CH2)3COOH) = O=C(O)CCCNCC(=O)O; NMeF = CN[C@@H](Cc1ccccc1)C(=O)O; NMeA = CN[C@@H](C)C(=O)O; Sar = CNCC(=O)O

Experiments:
Type in all cases: cell-based
Myostatin [1] = target: T1, Myostatin (Homo sapiens, UniProt O14793); experiment: Reporter gene assay for myostatin signaling in HepG2 cell line, Evaluation Procedure (1), myostatin inhibition; settings: Method A: Myostatin 10 ng/mL; read-out: IC50 (Luciferase) Myostatin HepG2
T1 construct: active myostatin (also called mature myostatin) is a homodimer consisting of two C-terminal growth factor domains; purchased R&D systems 788-G8/CF
T1 sequence (O14793 267-375): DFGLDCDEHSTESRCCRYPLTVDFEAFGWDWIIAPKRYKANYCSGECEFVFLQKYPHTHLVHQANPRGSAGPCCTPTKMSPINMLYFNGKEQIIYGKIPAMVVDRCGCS
How it was run: (§1)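 IC50 derived from One-Glo luciferase luminescence after 20–24 h at 37 °C. Peptides titrated 4-fold at 0.006–100 nmol/L against myostatin or 0.12–2000 nmol/L against GDF-11 in HepG2 cells carrying a transfected CAGA12-luciferase reporter, kept in 0.1% BSA EMEM.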

Myostatin [2] = experiment: as above; settings: Method A; GDF-11 IC50 versus Myostatin IC50
How it was run: as §1

GDF-11 = target: T2, GDF-11 (Homo sapiens, UniProt O95390); experiment: Reporter gene assay for myostatin signaling in HepG2 cell line, Evaluation Procedure (1), GDF-11 inhibition; settings: Method A: GDF-11 10 ng/mL; read-out: IC50 (Luciferase) GDF-11 HepG2
T2 construct: purchased R&D systems 1958-GD-G8/CF
T2 sequence (O95390 299-407): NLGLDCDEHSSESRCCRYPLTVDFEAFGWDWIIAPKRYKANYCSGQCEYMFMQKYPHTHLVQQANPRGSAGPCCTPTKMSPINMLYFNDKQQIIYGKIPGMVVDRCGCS
How it was run: as §1

SMILES	IC50 (Myostatin [1])	IC50 (GDF-11)	Selectivity (Myostatin [2])
CC[C@H](C)[C@@H]1NC(=O)[C@H](Cc2ccccc2)N(C)C(=O)[C@H](Cc2ccc(O)cc2)NC(=O)[C@H](Cc2c[nH]c3ccccc23)NC(=O)[C@H](CO)NC(=O)CN(CCCC(=O)O)C(=O)CSC[C@H](C(=O)O)NC(=O)[C@H](Cc2ccccc2)N(C)C(=O)[C@H](C)N(C)C(=O)[C@H](CC(C)C)NC(=O)[C@H](Cc2ccccc2)N(C)C(=O)[C@H](CCCNC(=N)N)NC(=O)[C@H](Cc2ccc(C(=O)O)cc2)NC(=O)[C@H](Cc2ccc(O)cc2)NC(=O)[C@H](C)N(C)C1=O [Myostatin_99_v188] ({CH2CO}-[Gly(N(CH2)3COOH)]SWY[NMeF]I[NMeA]Y[Phe(4-COOH)]R[NMeF]L[NMeA][NMeF][dC]-OH; thioether N-15)	55.4 nM	911 nM	16
CC[C@H](C)[C@@H]1NC(=O)[C@H](Cc2ccccc2)N(C)C(=O)[C@H](Cc2ccc(O)cc2)NC(=O)[C@H](Cc2c[nH]c3ccccc23)NC(=O)[C@H](C)NC(=O)[C@H](C)NC(=O)CSC[C@H](C(=O)O)NC(=O)[C@H](Cc2ccccc2)N(C)C(=O)[C@H](C)N(C)C(=O)[C@H](CC(C)C)NC(=O)[C@H](Cc2ccccc2)N(C)C(=O)[C@H](CCCNC(=N)N)NC(=O)[C@H](Cc2ccc(C(=O)O)cc2)NC(=O)[C@H](Cc2ccc(O)cc2)NC(=O)[C@H](C)N(C)C1=O [Myostatin_99_v191] ({CH2CO}-AAWY[NMeF]I[NMeA]Y[Phe(4-COOH)]R[NMeF]L[NMeA][NMeF][dC]-OH; thioether N-15)	8.1 nM	283 nM	35

Now from value to molecule, other results behind:

IC50 (Myostatin [1])	IC50 (GDF-11)	SMILES	Selectivity (Myostatin [2])
43.2 nM	935 nM	CC[C@H](C)[C@@H]1NC(=O)[C@H](Cc2ccccc2)N(C)C(=O)[C@H](Cc2ccc(O)cc2)NC(=O)[C@H](Cc2ccc(-c3ccccc3)cc2)NC(=O)[C@H](CO)NC(=O)CN(CCCC(=O)O)C(=O)CSC[C@H](C(=O)O)NC(=O)[C@H](Cc2ccccc2)N(C)C(=O)[C@H](C)N(C)C(=O)[C@H](CC(C)C)NC(=O)[C@H](Cc2ccccc2)N(C)C(=O)[C@H](CCCNC(=N)N)NC(=O)[C@H](Cc2ccc(C(=O)O)cc2)NC(=O)[C@H](Cc2ccc(O)cc2)NC(=O)CN(C)C1=O [Myostatin_99_v186] ({CH2CO}-[Gly(N(CH2)3COOH)]S[Bip]Y[NMeF]I[Sar]Y[Phe(4-COOH)]R[NMeF]L[NMeA][NMeF][dC]-OH; thioether N-15)	22
6.9 nM	234 nM	CC[C@H](C)[C@@H]1NC(=O)[C@H](Cc2ccccc2)N(C)C(=O)[C@H](Cc2ccc(O)cc2)NC(=O)[C@H](Cc2ccc(-c3ccccc3)cc2)NC(=O)[C@H](C)NC(=O)[C@H](C)NC(=O)CSC[C@H](C(=O)O)NC(=O)[C@H](Cc2ccccc2)N(C)C(=O)[C@H](C)N(C)C(=O)[C@H](CC(C)C)NC(=O)[C@H](Cc2ccccc2)N(C)C(=O)[C@H](CCCNC(=N)N)NC(=O)[C@H](Cc2ccc(C(=O)O)cc2)NC(=O)[C@H](Cc2ccc(O)cc2)NC(=O)CN(C)C1=O [Myostatin_99_v189] ({CH2CO}-AA[Bip]Y[NMeF]I[Sar]Y[Phe(4-COOH)]R[NMeF]L[NMeA][NMeF][dC]-OH; thioether N-15)	34
12.1 nM	2060 nM	CC[C@H](C)[C@@H]1NC(=O)[C@H](Cc2ccccc2)N(C)C(=O)[C@H](Cc2ccc(O)cc2)NC(=O)[C@H](Cc2c[nH]c3ccccc23)NC(=O)[C@H](C)NC(=O)[C@H](C)NC(=O)CSC[C@H](C(=O)O)NC(=O)[C@H](Cc2ccccc2)N(C)C(=O)[C@H](C)N(C)C(=O)[C@H](CC(C)C)NC(=O)[C@H](Cc2ccccc2)N(C)C(=O)[C@H](CCCNC(=N)N)NC(=O)[C@H](Cc2ccc(C(=O)O)cc2)NC(=O)[C@H](Cc2cccc(OCC(=O)O)c2)NC(=O)CN(C)C1=O [Myostatin_99_v192] ({CH2CO}-AAWY[NMeF]I[Sar][Phe(3-OCH2COOH)][Phe(4-COOH)]R[NMeF]L[NMeA][NMeF][dC]-OH; thioether N-15)	170
